≈ marks a conversion by molar mass, not a printed value. Calls of active or inactive are those of the source. No cut-off for these calls is given here. A value given as a limit tells only on which side of the number the result lay.

The subject of one series is Staphylococcus aureus. Briefly: Antibacterial activity against wild type Staphylococcus aureus USA300 assessed as inhibition of bacterial growth incubated for 18 hrs. As to conditions: read-out: MIC100. Type of series: functional.
For series [1], the system named is Escherichia coli. Briefly: Antibacterial activity against Escherichia coli ATCC BAA-2469 expressing NDM-1 assessed as inhibition of bacterial growth incubated for 18 hrs. The settings on record: read-out: MIC100. Type of series: functional.
Series [2] in a line: Drug uptake in Acinetobacter baumannii ATCC 19606 whole cells assessed as log10 increase in drug accumulation at 10 uM incubated for 10 mins by LC-MS/MS analysis relative to H-(D-Val)-(D-Dab)-Gly-(D-Ser)-(D-Trp)-Ser-Dab-(D-Dab)-Phe-Glu-Val-(D-allo-Ile)-Ala-OH. Type of series: ADME.
Series [3] can be described thus: Aqueous solubility of compound at pH 4.6. Type of series: physicochemical.
Series [4] has as its system Escherichia coli. The series can be described thus: Antibacterial activity against Escherichia coli Swiss 7 harboring mcr-1 gene assessed as inhibition of bacterial growth incubated for 18 hrs. Type of series: functional. The settings on record: read-out: MIC100.
The next series has as its system Pseudomonas aeruginosa. The series can be described thus: Antibacterial activity against efflux-deficient Pseudomonas aeruginosa PAO750 assessed as inhibition of bacterial growth incubated for 18 hrs. The settings on record: read-out: MIC100. The format is functional.
Series [5] relates to Escherichia coli. Briefly: Antibacterial activity against wild-type Escherichia coli ATCC 25922 assessed as inhibition of bacterial growth incubated for 18 hrs. The settings on record: read-out: MIC100. The format is functional.
The subject of the next series is Proteus mirabilis. The series can be described thus: Antibacterial activity against Proteus mirabilis ATCC 7002 assessed as inhibition of bacterial growth incubated for 18 hrs. Type of series: functional. As to conditions: read-out: MIC100.
Series [6] in a line: Drug uptake in Pseudomonas aeruginosa PAO1 whole cells assessed as log10 increase in drug accumulation at 10 uM incubated for 10 mins by LC-MS/MS analysis relative to H-(D-Val)-(D-Dab)-Gly-(D-Ser)-(D-Trp)-Ser-Dab-(D-Dab)-Phe-Glu-Val-(D-allo-Ile)-Ala-OH. Type of series: ADME.
Series [7] relates to Escherichia coli. Briefly: Antibacterial activity against colistin resistant Escherichia coli NCTC 13846 harboring mcr-1 gene assessed as inhibition of bacterial growth incubated for 18 hrs. Type of series: functional. As to conditions: read-out: MIC100.
Series [8] has as its system Cell membrane. Briefly: Induction of membrane permeabilization in Klebsiella pneumoniae ATCC 13883 at 4 to 10 ug/ml measured after 30 mins by Sytox Green labelling based microscopic analysis. Type of series: cell membranes. The settings on record: dose 4-10 µg/ml.
The subject of series [9] is Escherichia coli. The series can be described thus: Antibacterial activity against Escherichia coli Swiss 9 harboring mcr-1 gene assessed as inhibition of bacterial growth incubated for 18 hrs. As to conditions: read-out: MIC100. Type of series: functional.
Series [10] is described as follows: Lipophilicity, logD of compound at pH 7.4. Type of series: physicochemical. The settings on record: buffer.
Series [11] in a line: Aqueous solubility of compound at pH 7.4. The format is physicochemical.
The test system of series [12] is Cell membrane. The series can be described thus: Induction of membrane permeabilization in Escherichia coli ATCC 25922 at 4 to 10 ug/ml measured after 30 mins by Sytox Green labelling based microscopic analysis. The format is cell membranes. As to conditions: dose 4-10 µg/ml.
Series [13] is described as follows: Drug uptake in Proteus mirabilis ATCC 7002 whole cells at 10 uM incubated for 10 mins by LC-MS/MS analysis. The format is ADME.
The subject of the next series is Klebsiella pneumoniae. Briefly: Antibacterial activity against wild-type Klebsiella pneumoniae ATCC 13883 assessed as inhibition of bacterial growth incubated for 18 hrs. The format is functional. As to conditions: read-out: MIC100.
A short description of series [14]: Drug localization in membrane fraction of Escherichia coli ATCC 25922 at 10 uM incubated for 10 mins by LC-MS/MS analysis. The format is ADME, cell membranes.
The test system of the next series is Morganella morganii. Briefly: Antibacterial activity against Morganella morganii ATCC 25830 assessed as inhibition of bacterial growth incubated for 18 hrs. The settings on record: read-out: MIC100. The format is functional.
Series [15] is described as follows: Drug uptake in Escherichia coli ATCC 25922 assessed as fold increase in cellular drug concentration at 10 uM incubated for 10 mins by LC-MS/MS analysis. Type of series: ADME.

As for `CCCCCCCC(=O)N[C@@H](C(=O)N[C@H](CCN)C(=O)NCC(=O)N[C@H](CO)C(=O)N[C@H](Cc1c[nH]c2ccccc12)C(=O)N[C@@H](CO)C(=O)N[C@@H](CCN)C(=O)N[C@H](CCN)C(=O)N[C@@H](Cc1ccccc1)C(=O)N[C@@H](CCC(=O)O)C(=O)N[C@H](C(=O)N[C@@H](C(=O)N[C@@H](C)C(=O)O)[C@@H](C)CC)C(C)C)C(C)C`, the MIC in the series on Staphylococcus aureus is 32 µg/mL (≈ 21 µM); in the series on Escherichia coli [1] it was 1 µg/mL (≈ 0.658 µM); with Escherichia coli [4], 1 µg/mL (≈ 0.658 µM); in the series on Pseudomonas aeruginosa, > 32 µg/mL; with Escherichia coli [5], 2 µg/mL (≈ 1.32 µM); in the series on Proteus mirabilis, 32 µg/mL (≈ 21 µM). Moreover, the MIC in the series with Escherichia coli [7] is 1 µg/mL (≈ 0.658 µM); in the series on Escherichia coli [9], 0.5 µg/mL (≈ 0.329 µM); with Klebsiella pneumoniae, 4 µg/mL (≈ 2.63 µM); in the series on Morganella morganii, > 32 µg/mL. For the same compound, the “log(activity)” value in [2] and in series [6] was 2 in each case. Also, the results for the solubility in series [3] and in [11] were 88 mg/mL (≈ 57900 µM) and 30 mg/mL (≈ 19700 µM), respectively. Besides, the outcome in the series on Cell membrane [8] and in the series with Cell membrane [12] was Active. In series [10], this compound displayed a logD of 2.24. In addition, the Drug uptake entry in series [13] and in [14] was “Active” throughout. The “fold change (FC)” value in series [15] came to 30.
